Experimental data published in patent US20080096861A1, “Chemical Compounds” (SMITHKLINE BEECHAM CORPORATION, priority 2004, published 2008).

These compounds were tested on HIV-1 IIIB (assay: HOS HIV-1 infectivity assay). Conditions: Human immunodeficiency virus 1, IIIB; as determined by the infectivity assay; strain not stated in Table 2; read-out: Activity Level.
Format: cell-based
Description: Compounds were profiled against two HIV-1 viruses, the M-tropic (CCR5 utilizing) Ba-L strain and the T-tropic (CXCR4 utilizing) IIIB strain. Both viruses were propagated in human peripheral blood lymphocytes. Compounds were tested for there ability to block infection of the HOS cell line (expressing hCXCR4/hCCR5/hCD4/pHIV-LTR-luciferase) by either HIV-1 Ba-L or HIV-1 IIIB. Compound cytotoxicity was also examined in the absence of virus addition.
HOS cells (expressing hCXCR4/hCCR5/hCD4/pHIV-LTR-luciferase) were harvested and diluted in Dulbeccos modified Eagles media supplemented with 2% FCS and non-essential amino acid to a concentration of 60,000 cells/ml. The cells were plated into 96-well plates (100 ul per well) and the plates were placed in a tissue culture incubator (37° C.; 5% CO2/95% air) for a period of 24 h.
Subsequently, 50 ul of the desired drug solution (4 times the final concentration) was added to each well and the plates were returned to the tissue culture incubator (37° C.; 5% CO2/95% air) for 1 h. Following this incubation 50 ul of diluted virus was added to each well (approximately 2 million RLU per well of virus). The plates were returned to the tissue culture incubator (37° C.; 5% CO2/95% air) and were incubated for a further 96 h.
Following this incubation the endpoint for the virally infected cultures was quantified following addition of Steady-Glo Luciferase assay system reagent (Promega, Madison, Wis.). Cell viability or non-infected cultures was measured using a CellTiter-Glo luminescent cell viability assay system (Promega, Madison, Wis.). All luminescent readouts are performed on a Topcount luminescence detector (Packard, Meridien, Conn.).

Structure (SMILES)	IC50 [nM]
CN(Cc1nc2ccccc2n1CC1CCNC1)C1CCCc2cccnc21 (centres unmarked) [Example 8c, N-Methyl-N-{[1-(3-pyrrolidinylmethyl)-1H-benzimidazol-2-yl]methyl}-5,6,7,8-tetrahydro-8-quinolinamine]	< 100
CN(Cc1nc2ccccc2n1CC1CNC1)C1CCCc2cccnc21 (centres unmarked) [Example 10d, N-{[1-(3-Azetidinylmethyl)-1H-benzimidazol-2-yl]methyl}-N-methyl-5,6,7,8-tetrahydro-8-quinolinamine]	< 100
CN(Cc1nc2ccccc2n1C1CCNCC1)C1CCCc2cccnc21 (centres unmarked) [Example 11h, N-Methyl-N-{[1-(4-piperidinyl)-1H-benzimidazol-2-yl]methyl}-5,6,7,8-tetrahydro-8-quinolinamine]	< 100
CN(Cc1nc2ccccc2n1CCCN)C1CCCc2cccnc21 (centres unmarked) [Example 15b, N-{[1-(3-Aminopropyl)-1H-benzimidazol-2-yl]methyl}-N-methyl-5,6,7,8-tetrahydro-8-quinolinamine]	< 100
CN(Cc1nc2ccccc2n1CCC1CCCCN1)C1CCCc2cccnc21 (centres unmarked) [Example 23d, N-Methyl-N-({1-[2-(2-piperidinyl)ethyl]-1H-benzimidazol-2-yl}methyl)-5,6,7,8-tetrahydro-8-quinolinamine]	< 100
CN(Cc1nc2ccccc2n1Cc1ccccn1)C1CCCc2cccnc21 (centres unmarked) [Example 26, N-Methyl-N-{[1-(2-pyridinylmethyl)-1H-benzimidazol-2-yl]methyl}-5,6,7,8-tetrahydro-8-quinolinamine]	500 to 10000
CN(Cc1nc2ccccc2n1Cc1ccncc1)C1CCCc2cccnc21 (centres unmarked) [Example 27, N-Methyl-N-{[1-(4-pyridinylmethyl)-1H-benzimidazol-2-yl]methyl}-5,6,7,8-tetrahydro-8-quinolinamine]	100 to 500
CN(Cc1nc2ccccc2n1CC(=O)NCc1ccncc1)C1CCCc2cccnc21 (centres unmarked) [Example 28, 2-(2-{[Methyl(5,6,7,8-tetrahydro-8-quinolinyl)amino]methyl}-1H-benzimidazol-1-yl)-N-(4-pyridinylmethyl)acetamide]	100 to 500
CN(Cc1nc2ccccc2n1CC(=O)NCc1cccnc1)C1CCCc2cccnc21 (centres unmarked) [Example 29, 2-(2-{[Methyl(5,6,7,8-tetrahydro-8-quinolinyl)amino]methyl}-1H-benzimidazol-1-yl)-N-(3-pyridinylmethyl)acetamide]	< 100
CN(Cc1nc2ccccc2n1CC(=O)NCCCN)C1CCCc2cccnc21 (centres unmarked) [Example 30, N-(3-Aminopropyl)-2-(2-{[methyl(5,6,7,8-tetrahydro-8-quinolinyl)amino]methyl}-1H-benzimidazol-1-yl)acetamide]	100 to 500
CN(Cc1nc2ccccc2n1CC(=O)NCCN)C1CCCc2cccnc21 (centres unmarked) [Example 31, N-(2-Aminoethyl)-2-(2-{[methyl(5,6,7,8-tetrahydro-8-quinolinyl)amino]methyl}-1H-benzimidazol-1-yl)acetamide]	100 to 500
CN(Cc1nc2ccccc2n1CC(=O)N1CCNCC1)C1CCCc2cccnc21 (centres unmarked) [Example 32, N-Methyl-N-({1-[2-oxo-2-(1-piperazinyl)ethyl]-1H-benzimidazol-2-yl}methyl)-5,6,7,8-tetrahydro-8-quinolinamine]	500 to 10000
CN(Cc1nc2ccccc2n1CC(=O)NCc1ccccn1)C1CCCc2cccnc21 (centres unmarked) [Example 33, 2-(2-{[Methyl(5,6,7,8-tetrahydro-8-quinolinyl)amino]methyl}-1H-benzimidazol-1-yl)-N-(2-pyridinylmethyl)acetamide]	100 to 500
CN(Cc1nc2ccccc2n1[C@H]1CC[C@H](N(C)C)CC1)C1CCCc2cccnc21 (stereo partly drawn) [Example 35, N-({1-[trans-4-(Dimethylamino)cyclohexyl]-1H-benzimidazol-2-yl}methyl)-N-methyl-5,6,7,8-tetrahydro-8-quinolinamine]	100 to 500
CN(Cc1nc2ccccc2n1CCc1cccnc1)C1CCCc2cccnc21 (centres unmarked) [Example 36]	100 to 500
CN(Cc1nc2ccccc2n1CCc1ccccn1)C1CCCc2cccnc21 (centres unmarked) [Example 37, N-methyl-N-([1-[2-(2-pyridinyl)ethyl]-1H-benzimidazol-2-yl]methyl)-5,6,7,8-tetrahydro-8-quinolinamine]	100 to 500

Structure (SMILES)	IC50 [nM]
CN(C)CCCn1ccnc1CN(C)C1CCCc2cccnc21 (centres unmarked) [Example 38, N-({1-[3-(Dimethylamino)propyl]-1H-imidazol-2-yl}methyl)-N-methyl-5,6,7,8-tetrahydro-8-quinolinamine]	500 to 10000
CN(Cc1nc2ccccc2n1C[C@H]1CCCNC1)[C@H]1CCCc2cccnc21 [Example 39h, (8S)—N-Methyl-N-({1-[(3S)-3-piperidinylmethyl]-1H-benzimidazol-2-yl}methyl)-5,6,7,8-tetrahydro-8-quinolinamine]	< 100
CN1CCC[C@H](Cn2c(CN(C)[C@H]3CCCc4cccnc43)nc3ccccc32)C1 [Example 39i, (8S)—N-Methyl-N-[(1-{[(3S)-1-methyl-3-piperidinyl]methyl}-1H-benzimidazol-2-yl)methyl]-5,6,7,8-tetrahydro-8-quinolinamine]	< 100
CN(Cc1nc2ccccc2n1C[C@H]1CCCN(Cc2ccccn2)C1)[C@H]1CCCc2cccnc21 [Example 40, (8S)—N-Methyl-N-[(1-{[(3S)-1-(2-pyridinylmethyl)-3-piperidinyl]methyl}-1H-benzimidazol-2-yl)methyl]-5,6,7,8-tetrahydro-8-quinolinamine]	< 100
CN(Cc1nc2ccccc2n1C[C@H]1CCCN(Cc2cccnc2)C1)[C@H]1CCCc2cccnc21 [Example 41, (8S)—N-Methyl-N-[(1-{[(3S)-1-(3-pyridinylmethyl)-3-piperidinyl]methyl}-1H-benzimidazol-2-yl)methyl]-5,6,7,8-tetrahydro-8-quinolinamine]	< 100
CN(Cc1nc2ccccc2n1C[C@H]1CCCN(Cc2ccncc2)C1)[C@H]1CCCc2cccnc21 [Example 42, (8S)—N-Methyl-N-[(1-{[(3S)-1-(4-pyridinylmethyl)-3-piperidinyl]methyl}-1H-benzimidazol-2-yl)methyl]-5,6,7,8-tetrahydro-8-quinolinamine]	< 100
CN(Cc1nc2ccccc2n1C[C@H]1CCCN(Cc2ccccc2)C1)[C@H]1CCCc2cccnc21 [Example 43, (8S)—N-Methyl-N-[(1-{[(3S)-1-(phenylmethyl)-3-piperidinyl]methyl}-1H-benzimidazol-2-yl)methyl]-5,6,7,8-tetrahydro-8-quinolinamine]	< 100
CC(C)CN1CCC[C@H](Cn2c(CN(C)[C@H]3CCCc4cccnc43)nc3ccccc32)C1 [Example 44, (8S)—N-Methyl-N-[(1-{[(3S)-1-(2-methylpropyl)-3-piperidinyl]methyl}-1H-benzimidazol-2-yl)methyl]-5,6,7,8-tetrahydro-8-quinolinamine]	< 100
CN(Cc1nc2ccccc2n1C[C@H]1CCCN(Cc2ncc[nH]2)C1)[C@H]1CCCc2cccnc21 [Example 45, (8S)—N-[(1-{[(3S)-1-(1H-Imidazol-2-ylmethyl)-3-piperidinyl]methyl}-1H-benzimidazol-2-yl)methyl]-N-methyl-5,6,7,8-tetrahydro-8-quinolinamine]	< 100
CN(Cc1nc2ccccc2n1C[C@H]1CCCN(CCO)C1)[C@H]1CCCc2cccnc21 [Example 46, 2-((3S)-3-{[2-({Methyl[(8S)-5,6,7,8-tetrahydro-8-quinolinyl]amino}methyl)-1H-benzimidazol-1-yl]methyl}-1-piperidinyl)ethanol]	< 100
CN(Cc1nc2ccccc2n1C[C@H]1CCCN(CCCO)C1)[C@H]1CCCc2cccnc21 [Example 47, 3-((3S)-3-{[2-({Methyl[(8S)-5,6,7,8-tetrahydro-8-quinolinyl]amino}methyl)-1H-benzimidazol-1-yl]methyl}1-piperidinyl)-1-propanol]	< 100
CN(C)Cc1cccc(Cn2c(CN(C)C3CCCc4cccnc43)nc3ccccc32)c1 (centres unmarked) [Example 48, N-{[1-({3-[(Dimethylamino)methyl]phenyl}methyl)-1H-benzimidazol-2-yl]methyl}-N-methyl-5,6,7,8-tetrahydro-8-quinolinamine]	100 to 500
CN(C)CCCCCCn1c(CN(C)C2CCCc3cccnc32)nc2ccccc21 (centres unmarked) [Example 49, N-({1-[6-(Dimethylamino)hexyl]-1H-benzimidazol-2-yl}methyl)-N-methyl-5,6,7,8-tetrahydro-8-quinolinamine]	100 to 500
CN(C)Cc1ccccc1Cn1c(CN(C)C2CCCc3cccnc32)nc2ccccc21 (centres unmarked) [Example 50, N-{[1-({2-[(Dimethylamino)methyl]phenyl}methyl)-1H-benzimidazol-2-yl]methyl}-N-methyl-5,6,7,8-tetrahydro-8-quinolinamine]	100 to 500
CN(Cc1nc2ccccc2n1CCCCNS(C)(=O)=O)C1CCCc2cccnc21 (centres unmarked) [Example 51, N-[4-(2-{[Methyl(5,6,7,8-tetrahydro-8-quinolinyl)amino]methyl}-1H-benzimidazol-1-yl)butyl]methanesulfonamide]	100 to 500
NCCCn1c(CN(CCc2ccccc2)C2CCCc3cccnc32)nc2ccccc21 (centres unmarked) [Example 52, N-{[1-(3-Aminopropyl)-1H-benzimidazol-2-yl]methyl}-N-(2-phenylethyl)-5,6,7,8-tetrahydro-8-quinolinamine]	500 to 10000
